Patent US6403343B2, “Method of producing a taxane-type diterpene and a method of obtaining cultured cells which produce the taxane-type dilterpene at a high rate” (Mitsui Chemicals, Inc., priority 1993, dated 2002)

How the values were obtained:
[1] = tested on: cultured cells of Taxus baccata LINN; assay: Taxane-type diterpene yield and cell yield, shake culture of Taxus baccata cells with a jasmonic acid (or jasmone) added; type: cell-based; conditions: for yield of baccatin III / yield of cephalomannine / yield of taxol: cell + medium
[2] = tested on: cultured cells of Taxus baccata LINN; assay: Growth rate and taxane yield, 21-day shake culture of Taxus baccata cells with heavy metal compound, amine, antiethylene agent or Ethrel added; type: cell-based
Protocol: (§1) One gram (fresh weight) of the callus was inoculated to an Erlenmeyer flask containing 20 ml of liquid Woody Plant Medium to which the above-mentioned component was added to give the same concentration and shake culture was carried out with a rotary shaker (amplification of 25 mm, 100 rpm) and the callus was subcultured in every 21 days to accelerate the growth rate thereof.
Then shake culture was carried out at 25° C. for 21 days.
After completing the culture, cultured cells of Taxus baccata LINN were harvested by filtration and lyophilized, then the dry weight was measured to obtain the growth rate thereof. Taxane-type diterpenes were extracted from the dried callus with methanol and the like, and they were determined by comparing with standard taxol, cephalomannine, and baccatin III using high performance liquid chromatography to measure the yields of the taxane-type diterpenes.
as §1
One gram (fresh weight) of the cultured cells thus obtained was inoculated to an Erlenmeyer flask containing 20 ml of liquid Woody Plant Medium to which the above-mentioned component had been added to give the same concentration, then spermidine was added to it as amine to give the final concentration of 10^−9M-1M. Then shake culture was carried out at 25° C. for 21 days.
After completing the culture, cultured cells of Taxus baccata LINN were harvested by filtration and lyophilized, then the dry weight was measured to obtain the growth rate thereof. Taxane-type diterpenes were extracted from the dried cells with methanol and the like, and they were determined by comparing with standard taxol, cephalomannine, and baccatin III using high performance liquid chromatography to measure the yields of the taxane-type diterpene.
One gram (fresh weight) of the callus was inoculated to an Erlenmeyer flask containing 20 ml of liquid Woody Plant Medium to which the above-mentioned component had been added to give the same concentration and shake culture was carried out with a rotary shaker (amplification of 25 mm, 100 rpm) and the callus was subcultured in every 21 days to accelerate the growth rate thereof.
One gram (fresh weight) of the cultured cells thus obtained was inoculated to an Erlenmeyer flask containing 20 ml of liquid Woody Plant Medium to which the above-mentioned component had been added to give the same concentration, and shake culture was carried out at 25° C. for 14 days.

[3] = 2×10^−6 M added 5 times at 4 days' intervals from day 0, total 10^−5 M
[4] = 10^−1 M added at start, 21 days
[5] = 10^−2 M added at start, 21 days
[6] = 10^−3 M added at start, 21 days
[7] = 10^−4 M added at start, 21 days
[8] = 10^−5 M added at start, 21 days
[9] = 10^−5 M added on 7th day, 14 more days
[10] = 10^−5 M added on 14th day, 7 more days
[11] = 10^−5 M added on 18th day, 3 more days
[12] = 10^−5 M at start + methyl jasmonate 10^−4 M on 14th day
[13] = 10^−5 M at start + methyl jasmonate 10^−4 M on 14th day, oxygen 10% in the gas phase
[14] = 10^−5 M at start, oxygen 10% in the gas phase
[15] = 10^−6 M added at start, 21 days
[16] = 10^−7 M added at start, 21 days
[17] = 10^−8 M added at start, 21 days
[18] = 10^−9 M added at start, 21 days

## CCC=CCC1=C(C)CCC1=O [Comparative Example 24]
[1]; jasmone 0.1 μM
  cell yield: 12.2 g/L
  yield of baccatin III: 0.3 mg/L
  yield of cephalomannine: 1.2 mg/L
  yield of taxol: 3.0 mg/L
[1]; jasmone 1 μM
  cell yield: 12.1 g/L
  yield of baccatin III: 0.4 mg/L
  yield of cephalomannine: 1.0 mg/L
  yield of taxol: 3.2 mg/L
[1]; jasmone 10 μM
  cell yield: 11.3 g/L
  yield of baccatin III: 0.3 mg/L
  yield of cephalomannine: 0.8 mg/L
  yield of taxol: 3.3 mg/L
[1]; jasmone 100 μM
  cell yield: 11.3 g/L
  yield of baccatin III: 0.3 mg/L
  yield of cephalomannine: 0.6 mg/L
  yield of taxol: 3.2 mg/L
[1]; jasmone 1000 μM
  cell yield: 10.9 g/L
  yield of baccatin III: 0.2 mg/L
  yield of cephalomannine: 0.8 mg/L
  yield of taxol: 2.5 mg/L

## NCCCCNCCCN [spermidine]
[2]; 1 M added at start, 21 days
  growth rate: 1.4 times
  total yield of taxane: 0.21 mg/L
  yield of baccatin III: 0.10 mg/L
  yield of cephalomannine: 0.03 mg/L
  yield of taxol: 0.08 mg/L
[2]; [3]
  growth rate: 2.9 times
  total yield of taxane: 27.74 mg/L
  yield of baccatin III: 6.30 mg/L
  yield of cephalomannine: 6.01 mg/L
  yield of taxol: 15.43 mg/L
[2]; [4]
  growth rate: 2.1 times
  total yield of taxane: 3.35 mg/L
  yield of baccatin III: 0.41 mg/L
  yield of cephalomannine: 1.00 mg/L
  yield of taxol: 1.94 mg/L
[2]; [5]
  growth rate: 2.0 times
  total yield of taxane: 7.13 mg/L
  yield of baccatin III: 0.82 mg/L
  yield of cephalomannine: 2.42 mg/L
  yield of taxol: 3.89 mg/L
[2]; [6]
  growth rate: 2.9 times
  total yield of taxane: 17.31 mg/L
  yield of baccatin III: 2.63 mg/L
  yield of cephalomannine: 4.59 mg/L
  yield of taxol: 10.09 mg/L
[2]; [7]
  growth rate: 3.1 times
  total yield of taxane: 22.23 mg/L
  yield of baccatin III: 2.78 mg/L
  yield of cephalomannine: 6.49 mg/L
  yield of taxol: 12.96 mg/L
[2]; [8]
  growth rate: 3.1 times
  total yield of taxane: 33.17 mg/L
  yield of baccatin III: 6.59 mg/L
  yield of cephalomannine: 7.30 mg/L
  yield of taxol: 19.28 mg/L
[2]; [9]
  growth rate: 2.9 times
  total yield of taxane: 27.45 mg/L
  yield of baccatin III: 6.08 mg/L
  yield of cephalomannine: 6.13 mg/L
  yield of taxol: 15.24 mg/L
[2]; [10]
  growth rate: 2.9 times
  total yield of taxane: 20.98 mg/L
  yield of baccatin III: 5.46 mg/L
  yield of cephalomannine: 5.32 mg/L
  yield of taxol: 10.20 mg/L
[2]; [11]
  growth rate: 3.0 times
  total yield of taxane: 11.48 mg/L
  yield of baccatin III: 2.95 mg/L
  yield of cephalomannine: 2.90 mg/L
  yield of taxol: 5.63 mg/L
[2]; [12]
  growth rate: 2.6 times
  total yield of taxane: 50.25 mg/L
  yield of baccatin III: 18.96 mg/L
  yield of cephalomannine: 9.74 mg/L
  yield of taxol: 21.55 mg/L
[2]; [13]
  growth rate: 2.6 times
  total yield of taxane: 57.89 mg/L
  yield of baccatin III: 19.65 mg/L
  yield of cephalomannine: 8.57 mg/L
  yield of taxol: 29.67 mg/L
[2]; [14]
  growth rate: 2.7 times
  total yield of taxane: 40.29 mg/L
  yield of baccatin III: 13.43 mg/L
  yield of cephalomannine: 7.81 mg/L
  yield of taxol: 19.05 mg/L
[2]; [15]
  growth rate: 3.2 times
  total yield of taxane: 23.16 mg/L
  yield of baccatin III: 3.61 mg/L
  yield of cephalomannine: 6.04 mg/L
  yield of taxol: 13.51 mg/L
[2]; [16]
  growth rate: 3.1 times
  total yield of taxane: 18.89 mg/L
  yield of baccatin III: 1.34 mg/L
  yield of cephalomannine: 5.79 mg/L
  yield of taxol: 11.76 mg/L
[2]; [17]
  growth rate: 3.1 times
  total yield of taxane: 4.39 mg/L
  yield of baccatin III: 0.66 mg/L
  yield of cephalomannine: 1.74 mg/L
  yield of taxol: 1.99 mg/L
[2]; [18]
  growth rate: 2.9 times
  total yield of taxane: 1.21 mg/L
  yield of baccatin III: 0.31 mg/L
  yield of cephalomannine: 0.58 mg/L
  yield of taxol: 0.32 mg/L

## NCCCNCCCCNCCCN [spermin]
[2]; 1 M added at start, 21 days
  growth rate: 1.0 times
  total yield of taxane: 0.22 mg/L
  yield of baccatin III: 0.10 mg/L
  yield of cephalomannine: 0.04 mg/L
  yield of taxol: 0.08 mg/L
[2]; [4]
  growth rate: 1.4 times
  total yield of taxane: 1.29 mg/L
  yield of baccatin III: 0.39 mg/L
  yield of cephalomannine: 0.32 mg/L
  yield of taxol: 0.58 mg/L
[2]; [5]
  growth rate: 2.1 times
  total yield of taxane: 3.30 mg/L
  yield of baccatin III: 0.70 mg/L
  yield of cephalomannine: 1.54 mg/L
  yield of taxol: 1.06 mg/L
[2]; [6]
  growth rate: 2.0 times
  total yield of taxane: 8.22 mg/L
  yield of baccatin III: 0.76 mg/L
  yield of cephalomannine: 2.68 mg/L
  yield of taxol: 4.78 mg/L
[2]; [7]
  growth rate: 2.3 times
  total yield of taxane: 11.96 mg/L
  yield of baccatin III: 1.64 mg/L
  yield of cephalomannine: 4.09 mg/L
  yield of taxol: 6.23 mg/L
[2]; [8]
  growth rate: 2.1 times
  total yield of taxane: 17.18 mg/L
  yield of baccatin III: 2.09 mg/L
  yield of cephalomannine: 5.63 mg/L
  yield of taxol: 9.46 mg/L
[2]; [15]
  growth rate: 2.4 times
  total yield of taxane: 6.89 mg/L
  yield of baccatin III: 0.89 mg/L
  yield of cephalomannine: 1.97 mg/L
  yield of taxol: 4.03 mg/L
[2]; [16]
  growth rate: 2.4 times
  total yield of taxane: 4.17 mg/L
  yield of baccatin III: 0.68 mg/L
  yield of cephalomannine: 1.32 mg/L
  yield of taxol: 2.17 mg/L
[2]; [17]
  growth rate: 2.3 times
  total yield of taxane: 3.42 mg/L
  yield of baccatin III: 0.62 mg/L
  yield of cephalomannine: 1.01 mg/L
  yield of taxol: 1.79 mg/L
[2]; [18]
  growth rate: 2.9 times
  total yield of taxane: 1.86 mg/L
  yield of baccatin III: 0.50 mg/L
  yield of cephalomannine: 0.64 mg/L
  yield of taxol: 0.72 mg/L
